Measured values as given in patent US9199959B2, “HIV replication inhibitor” (Shionogi & Co., Ltd., priority 2011, dated 2015).

Experiments:
[1] = Solubility test, 1% DMSO addition, artificial intestinal juice pH 6.8; format: physicochemical; conditions: artificial intestinal juice with 1% DMSO, fassgf or other biorelevant, kinetic from dmso stock; pH 6.8, 1% DMSO addition, 16 hours at 25° C.
Procedure: The solubility of each compound was determined under 1% DMSO addition conditions. A 10 mmol/L solution of the compound was prepared with DMSO, and 6 μL of the solution was added to 594 μL of an artificial intestinal juice (water and a 118 mL solution of 0.2 mol/L NaOH reagent are added to 250 mL of 0.2 mol/L potassium dihydrogen phosphate reagent to reach 1000 mL) with a pH of 6.8. The mixture is left standing for 16 hours at 25° C., and the mixture is vacuum-filtered. The filtrate is two-fold diluted with methanol/water=1/1 (v/v), and the compound concentration in the filtrate is measured with HPLC or LC/MS/MS by the absolute calibration method.

CYP1A2 = target: T1, CYP1A2 (Homo sapiens, UniProt P05177); test: CYP inhibition assay, 7-ethoxyresorufin O-deethylation; format: in vitro ADME; conditions: pooled human liver microsomes, probe 7-ethoxyresorufin (O-deethylation), 0.5 μmol/L, pooled human hepatic microsome
T1 construct: enzyme, pooled human hepatic microsome 0.2 mg protein/mL; from tissue; host or cells: pooled human liver microsomes
T1 sequence (P05177 1-516): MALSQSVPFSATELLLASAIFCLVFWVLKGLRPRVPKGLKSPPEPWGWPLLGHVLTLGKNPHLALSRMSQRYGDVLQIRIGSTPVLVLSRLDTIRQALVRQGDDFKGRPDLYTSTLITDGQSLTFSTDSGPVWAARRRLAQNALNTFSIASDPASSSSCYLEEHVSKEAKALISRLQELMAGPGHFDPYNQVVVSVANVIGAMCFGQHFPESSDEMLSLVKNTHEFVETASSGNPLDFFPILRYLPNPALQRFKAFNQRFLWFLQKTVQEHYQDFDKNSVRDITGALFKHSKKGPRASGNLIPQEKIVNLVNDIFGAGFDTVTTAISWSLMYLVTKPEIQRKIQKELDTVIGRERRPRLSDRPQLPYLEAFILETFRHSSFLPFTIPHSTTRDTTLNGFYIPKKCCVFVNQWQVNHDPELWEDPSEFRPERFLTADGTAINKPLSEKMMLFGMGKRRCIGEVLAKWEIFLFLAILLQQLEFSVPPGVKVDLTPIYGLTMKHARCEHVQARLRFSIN
Procedure: (§1) Using commercially available pooled human hepatic microsome, and employing, as markers, 7-ethoxyresorufin O-deethylation (CYP1A2), tolbutamide methyl-hydroxylation (CYP2C9), mephenytoin 4′-hydroxylation (CYP2C19), dextromethorphan O-demethylation (CYP2D6), and terfenedine hydroxylation (CYP3A4) as typical substrate metabolism reactions of human main five CYP enzyme forms (CYP1A2, 2C9, 2C19, 2D6, 3A4), an inhibitory degree of each metabolite production amount by a test compound was assessed.
(§2) The reaction conditions were as follows: substrate, 0.5 μmol/L ethoxyresorufin (CYP1A2), 100 μmol/L tolbutamide (CYP2C9), 50 μmol/L S-mephenytoin (CYP2C19), 5 μmol/L dextromethorphan (CYP2D6), 1 μmol/L terfenedine (CYP3A4); reaction time, 15 minutes; reaction temperature, 37° C.; enzyme, pooled human hepatic microsome 0.2 mg protein/mL; test drug concentration, 1, 5, 10, 20 μmol/L (four points).
(§3) Each five kinds of substrates, human hepatic microsome, and a test drug in 50 mmol/L Hepes buffer as a reaction solution was added to a 96-well plate as the composition as described above, NADPH, as a cofactor was added to initiate metabolism reactions as markers and, after the incubation at 37° C. for 15 minutes, a methanol/acetonitrile=1/1 (v/v) solution was added to stop the reaction. After the centrifugation at 3000 rpm for 15 minutes, resorufin (CYP1A2 metabolite) in the supernatant was quantified by a fluorescent multilabel counter and tolbutamide hydroxide (CYP2C9 metabolite), mephenytoin 4′ hydroxide (CYP2C19 metabolite), dextrorphan (CYP2D6 metabolite), and terfenadine alcohol (CYP3A4 metabolite) were quantified by LC/MS/MS.
(§4) A reaction system containing only DMSO which is a solvent for dissolving a drug was adopted as a control (100%), and the remaining activity (%) was calculated, then IC50 was calculated by reverse presumption with a logistic model using a concentration and an inhibition rate.

CYP2C19 = target: T2, CYP2C19 (Homo sapiens, UniProt P33261); test: CYP inhibition assay, mephenytoin 4'-hydroxylation; format: in vitro ADME; conditions: pooled human liver microsomes, probe S-mephenytoin (4'-hydroxylation), 50 μmol/L, pooled human hepatic microsome
T2 construct: enzyme, pooled human hepatic microsome 0.2 mg protein/mL; from tissue; host or cells: pooled human liver microsomes
Procedure: as §1, §2, §3, §4

CYP3A4 = target: T3, CYP3A4 (Homo sapiens, UniProt P08684); test: CYP inhibition assay, terfenedine hydroxylation; format: in vitro ADME; conditions: pooled human liver microsomes, probe terfenedine (hydroxylation), 1 μmol/L, pooled human hepatic microsome
T3 construct: enzyme, pooled human hepatic microsome 0.2 mg protein/mL; from tissue; host or cells: pooled human liver microsomes
Procedure: as §1, §2, §3, §4

CYP2D6 = target: T4, CYP2D6 (Homo sapiens, UniProt P10635); test: CYP inhibition assay, dextromethorphan O-demethylation; format: in vitro ADME; conditions: pooled human liver microsomes, probe dextromethorphan (O-demethylation), 5 μmol/L, pooled human hepatic microsome
T4 construct: enzyme, pooled human hepatic microsome 0.2 mg protein/mL; from tissue; host or cells: pooled human liver microsomes
Procedure: as §1, §2, §3, §4

HIV (HTLV-III B strain) = test: HIV replication inhibition assay (MTT, MT-4 cells); format: cell-based; conditions: Human immunodeficiency virus 1, MT4, 96 h, four days culture, concentration at which cell cytotoxicity by virus is inhibited 50%
Procedure: HIV (HTLV-III B strain) persistent infected human T cell strain Molt-4 clone 8 was cultured in 10% Fetal Bovine Serum-containing RPMI-1640 medium and the supernatant was filtrated, then the virus titer was measured and the solution was stored at −80° C. Each anti-human immunodeficiency virus active substance was diluted with the above cultured medium to the designated concentration, which was dispensed into 96 well micro plate by 50 μL. Next, a MT-4 cell suspended liquid was dispensed by 100 μL (2.5×10^4 cells), then the above HIV-containing supernatant diluted with the above cultured medium was added thereto by 50 μL (60 pfu (plaque forming unit)).
The obtained mixture was cultured at 37° C. in CO2 incubator for four days, then 3-(4,5-dimehylthiazole-2-yl)-2,5-diphenyltetrazolynium bromide (MTT) 5 mg/mL in PBS was added to each well by 30 μL, followed by 1 hr-cultivation. In this step, as formazan was precipitated by reduction of MTT in living cells, the cell supernatant was removed from all well by 150 μL, then a 150 μL of solution (10% Triton X-100 and […]) was added thereto, followed by shaking with a plate mixer, to elute formazan. The formazan was measured with a microreader at OD: 560 nm and 690 nm (wavelength) and the result was compared with the reference. EC50 means the compound concentration at which cell cytotoxicity by virus is inhibited 50%.

[2] = tested on: Salmonella typhimurium TA98 strain, TA100 strain; format: cell-based; conditions: Salmonella typhimurium TA98, TA100, non-metabolism and metabolism activating condition
Procedure: The mutagenicity of the compound of the present invention was assayed.
20 μL of freezing-stored rat typhoid bacillus (Salmonella typhimurium TA98 strain, TA100 strain) was inoculated on 10 mL of a liquid nutrient medium (2.5% Oxoid nutrient broth No. 2), and this was cultured before shaking at 37° C. for 10 hours. 9 mL of a bacterial solution of the TA98 strain was centrifuged (2000×g, 10 minutes) to remove a culturing solution. The bacteria was suspended in F buffer (K2HPO4: 3.5 g/L, KH2PO4: 1 g/L, (NH4)2SO4: 1 g/L, trisodium citrate dehydrate: 0.25 g/L, MgSO4.7H2O: 0.1 g/L), and the suspension was added to 110 mL of an Exposure medium (Micro F buffer containing Biotin: 8 μg/mL, histidine: 0.2 μg/mL, glucose: 8 mg/mL). The TA100 strain was added to 120 mL of the Exposure medium per 3.16 mL of the bacterial solution to prepare a test bacterial solution. […] of a test substance DMSO solution (several stage dilution from maximum dose 50 mg/mL at 2- to 3-fold ratio), DMSO as a negative control, 50 μg/mL of 4-nitroquinoline-1-oxide DMSO solution for the TA98 strain, 0.25 μg/mL of 2-(2-furyl)-3-(5-nitro-2-furyl)acrylamide DMSO solution for the TA100 strain each under the non-metabolism activating condition, 40 μg/mL of 2-aminoanthracene DMSO solution for the TA98 strain, 20 μg/mL of 2-aminoanthracene DMSO solution for the TA100 strain each under the metabolism activating condition all as a positive control, and 588 μL of the test bacterial solution (a mixed solution of 498 μL of the test bacterial solution and 90 μL of S9 mix under the metabolism activating condition) were mixed, and this was shaking-cultured at 37° C. for 90 minutes. […] Since a well containing a bacterium which has obtained the proliferation ability by mutation of an amino acid (histidine) synthesizing enzyme gene turns from purple to yellow due to a pH change, the bacterium proliferation well which has turned to yellow in 48 wells per dose is counted, and was assessed by comparing with a negative control group. […]

T3 sequence (P08684 whole entry): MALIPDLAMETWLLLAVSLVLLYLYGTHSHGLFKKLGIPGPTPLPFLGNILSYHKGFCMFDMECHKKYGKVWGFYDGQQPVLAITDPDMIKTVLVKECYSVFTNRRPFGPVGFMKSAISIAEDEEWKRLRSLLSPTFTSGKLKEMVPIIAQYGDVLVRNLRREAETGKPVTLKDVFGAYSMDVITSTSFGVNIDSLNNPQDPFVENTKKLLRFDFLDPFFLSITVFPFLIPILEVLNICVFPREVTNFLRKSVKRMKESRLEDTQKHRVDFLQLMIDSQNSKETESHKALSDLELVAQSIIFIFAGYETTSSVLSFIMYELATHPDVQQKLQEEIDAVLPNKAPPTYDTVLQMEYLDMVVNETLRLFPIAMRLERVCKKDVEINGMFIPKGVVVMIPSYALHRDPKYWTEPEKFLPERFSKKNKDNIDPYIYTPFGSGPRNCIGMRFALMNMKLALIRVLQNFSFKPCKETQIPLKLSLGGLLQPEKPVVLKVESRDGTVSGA
T4 sequence (P10635 whole entry): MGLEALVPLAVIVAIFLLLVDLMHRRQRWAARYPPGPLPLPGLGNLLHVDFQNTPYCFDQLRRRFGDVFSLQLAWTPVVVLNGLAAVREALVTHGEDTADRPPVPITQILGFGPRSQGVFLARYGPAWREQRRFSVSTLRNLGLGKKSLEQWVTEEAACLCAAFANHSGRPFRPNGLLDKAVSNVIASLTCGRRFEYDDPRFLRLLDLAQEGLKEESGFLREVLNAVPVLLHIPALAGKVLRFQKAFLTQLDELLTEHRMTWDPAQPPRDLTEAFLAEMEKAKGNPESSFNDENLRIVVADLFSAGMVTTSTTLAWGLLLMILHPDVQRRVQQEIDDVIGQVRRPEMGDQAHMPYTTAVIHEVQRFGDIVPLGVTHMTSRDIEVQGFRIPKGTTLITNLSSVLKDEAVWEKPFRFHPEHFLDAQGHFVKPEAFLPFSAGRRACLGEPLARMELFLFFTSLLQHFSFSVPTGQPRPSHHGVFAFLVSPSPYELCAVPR
T2 sequence (P33261 whole entry): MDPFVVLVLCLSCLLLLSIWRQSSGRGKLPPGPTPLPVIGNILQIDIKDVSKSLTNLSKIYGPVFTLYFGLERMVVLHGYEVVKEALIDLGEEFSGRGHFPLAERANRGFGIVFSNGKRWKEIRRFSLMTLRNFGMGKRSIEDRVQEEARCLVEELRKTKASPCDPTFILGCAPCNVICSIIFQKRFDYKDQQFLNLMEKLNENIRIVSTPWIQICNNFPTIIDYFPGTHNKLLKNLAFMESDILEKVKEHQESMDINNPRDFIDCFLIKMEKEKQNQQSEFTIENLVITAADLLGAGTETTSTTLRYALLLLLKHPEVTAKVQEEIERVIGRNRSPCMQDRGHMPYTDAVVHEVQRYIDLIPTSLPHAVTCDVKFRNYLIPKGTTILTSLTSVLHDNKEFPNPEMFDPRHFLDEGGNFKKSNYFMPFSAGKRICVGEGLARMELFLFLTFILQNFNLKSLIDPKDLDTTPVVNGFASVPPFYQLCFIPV

| solubility at 16 h [1] [µM] | IC50 at 15 min (CYP1A2) [µM] | IC50 at 15 min (CYP2C19) [µM] | IC50 at 15 min (CYP3A4) [µM] | IC50 at 15 min (CYP2D6) [µM] | SMILES | EC50 (HIV (HTLV-III B strain)) [µM] | mutagenicity [2] |
| --- | --- | --- | --- | --- | --- | --- | --- |
| ≥ 50 | ≥ 20 | ≥ 20 | ≥ 20 | ≥ 20 | Cc1ccc(-c2c(N)cc(C(OC(C)(C)C)C(=O)O)c(-c3ccc(C)c(C)c3)c2C)cc1C (stereo not drawn) [Compound I-2] | – | – |
| ≥ 50 | ≥ 20 | ≥ 20 | ≥ 20 | ≥ 20 | CC(=O)Nc1cc(C(OC(C)(C)C)C(=O)O)c(-c2ccc(C)c(C)c2)c(C)c1-c1ccc(C)c(C)c1 (stereo not drawn) [Compound I-3] | – | – |
| ≥ 50 | ≥ 20 | ≥ 20 | ≥ 20 | ≥ 20 | CC(=O)Nc1c(Br)c(C(OC(C)(C)C)C(=O)O)c(-c2ccc(C)c(C)c2)c(C)c1-c1ccc(C)c(C)c1 (stereo not drawn) [Compound I-4] | 0.013 | – |
| – | ≥ 20 | ≥ 20 | ≥ 20 | ≥ 20 | COC(=O)Nc1cc(C(OC(C)(C)C)C(=O)O)c(-c2ccc(C)c(C)c2)c(C)c1-c1ccc(C)c(C)c1 (stereo not drawn) [Compound I-5] | – | – |
| – | ≥ 20 | ≥ 20 | ≥ 20 | ≥ 20 | Cc1ccc(-c2c(C)c(-c3ccc(C)c(C)c3)c(C(OC(C)(C)C)C(=O)O)c(C)c2N)cc1C (stereo not drawn) [Compound I-7] | 0.018 | – |
| – | ≥ 20 | ≥ 20 | ≥ 20 | ≥ 20 | CC(=O)N(C)c1c(C)c(C(OC(C)(C)C)C(=O)O)c(-c2ccc(C)c(C)c2)c(C)c1-c1ccc(C)c(C)c1 (stereo not drawn) [Compound I-8] | – | – |
| – | ≥ 20 | ≥ 20 | ≥ 20 | ≥ 20 | Cc1ccc(-c2c(C(OC(C)(C)C)C(=O)O)cc(N(C)C(=O)C(C)C)c(-c3ccc(C)c(C)c3)c2C)cc1C (stereo not drawn) [Compound I-9] | – | – |
| ≥ 50 | ≥ 20 | ≥ 20 | ≥ 20 | ≥ 20 | Cc1ccc(-c2c(NC(=O)C(C)C)cc(C(OC(C)(C)C)C(=O)O)c(-c3ccc(C)c(C)c3)c2C)cc1C (stereo not drawn) [Compound I-10] | – | – |
| – | – | – | – | – | CCNC(=O)Nc1c(C)c(C(OC(C)(C)C)C(=O)O)c(-c2ccc(C)c(C)c2)c(C)c1-c1ccc(C)c(C)c1 (stereo not drawn) [Compound I-11] | 0.021 | negative |
| – | – | – | – | – | Cc1ccc(-c2c(C)c(-c3ccc(C)c(C)c3)c(C(OC(C)(C)C)C(=O)O)c(C)c2NS(C)(=O)=O)cc1C (stereo not drawn) [Compound I-12] | 0.0064 | negative |
